According to patent publication US20250082766A1, “TREATMENT OF BRAIN TUMORS BY TARGETING THE CHOLESTEROL PATHWAY IN ASTROCYES” (Ramot at Tel-Aviv University Ltd., priority 2022, published 2025):

Key:
glioma [1] = conditions: OXPHOS-targeting drugs; cited from earlier work
[2] = system: tumours with EGFR or IDH1 mutations; conditions: patient-derived GBM xenograft mice; cited from earlier work
[3] = system: murine GL261 glioma cells co-cultured with astrocytes; assay: LPDS-induced glioma cell death in astrocyte-glioma co-cultures with cholesterol-lowering drugs, Annexin-V assay; format: cell-based, mouse; conditions: cholesterol-deprived (LPDS) astrocyte-GL261 co-cultures, FIGS. 15A-D, n=2
Source text: FIGS. 15A-D illustrate that cholesterol-lowering drugs inhibit astrocyte-mediated rescue of glioma cells from cholesterol deprivation. Analysis of LPDS-induced glioma cell death, co-cultured with astrocytes, in the presence of absence of cholesterol-lowering drugs, by Annexin-V assay. (FIGS. 15A-C) Representative flow cytometry plots of murine GL261 treated with statins (FIG. 15A) or ABCA1 inhibitors Probucol (FIG. 15B), and Glyburide (FIG. 15C), and this quantification analyses (FIG. 15D). n=2 biologically independent experiments.
Moreover, statins and probucol, or glyburide, target different nodes in the cholesterol efflux mechanism (synthesis and extracellular export). Therefore, the present inventor further tests whether the combinations of the two drug groups would have a synergistic effect on glioma viability.

GL261 glioma (GBM) = assay: Primary GBM model: GL261 intracranially implanted mice treated with Probucol; format: in vivo, mouse; conditions: summary statement on ABCA1 inhibitors; FIGS. 16A-E
Protocol: (FIG. 16A) Illustration of the experimental design for primary and recurrent GBM models. (FIGS. 16B-D) WT mice were intracranially (IC) implanted with GL261 cells. Tumor-bearing mice were treated daily, starting at day 10, with Probucol (30 mg/kg) or vehicle. (FIG. 16B) Tumor growth curve as determined by IVIS, (FIG. 16C) mice weight loss, and (FIG. 16D) Kaplan-Meier curves assess overall survival. p-value by Two-way ANOVA. Data represent Mean±SEM, 8 mice/group. (FIG. 16E) Illustration of the predicted effects of probucol or glyburide in the different models/disease stages.
For intracranial mouse glioma, mice were anesthetized, positioned in a Stereotaxic Alignment System, and injected with 1.5×10^4 GL261 or CT-2A cells in 2 μl of DMEM. Injections were made to the right frontal lobe, approximately 2.5 mm lateral and 0.1 mm caudal from bregma at a depth of 3 mm. In-vivo bioluminescence imaging, following XenoLight D-luciferin Potassium Salt administration (150 mg/kg) i.p. administration, was determined using IVIS Spectrum system (PerkinElmer). Ganciclovir (GCV, Cymevene, Roche #SAP-10051872; 25 mg/kg), Diphtheria-toxin (DT, Sigma-Aldrich, #D0564; 1100 ng/mice), or vehicle control (PBS) were administered daily following tumor establishment (day 10), as previously described (Mayo, L., et al. Nat Med (2014) 20: 1147-1156). CD8^+ T cell depletion was performed using an anti-CD8 monoclonal antibody ([…], Bioxcell) or an isotype control monoclonal antibody (2A3, Bioxcell), as previously described (Takenaka, M. C. et al. Control of tumor-associated macrophages and T cells in glioblastoma via AHR and CD39. Nat Neurosci 22, 729-740 (2019)). GBM-bearing mice were intraperitoneally injected (0.1 mg/mouse) with an anti-CD8 or an isotype control mAbs, 1 day before, and 7 days after, GCV administration. CD8 T-cell depletion was validated by FACS analysis using a Sony SH800 FACS instrument (Sony Biotechnology). Data analysis was performed using FlowJo v10 (TreeStar, USA). The following reagents were used for analysis: anti-CD45 (1:100; 30-F11, Biolegend, #103106), anti-CD3[…] (1:50; 145-2C11, Biolegend #100335), and anti-CD8a (1:100; 53-6.7, Biolegend, #100765).
To investigate this hypothesis, C57Bl/6 mice are implanted with GFP^+ luciferase-expressing glioma cells (GL261 or CT-2A), using two subtype models—primary or recurrent GBM/brain tumor resection (as illustrated in FIG. 16A), and are treated daily with probucol, glyburide, or vehicle control, with or without a potent statin (e.g., simvastatin as shown in FIG. 15A). The dosage of the different drugs is optimized based on FDA guidelines for conversions from human-accepted dosages (Table 5 below).
In the primary GBM model (pGBM)—10 days after tumor implantation, the mice are treated with cholesterol-lowering drugs (FIG. 16A). In the recurrent GBM model (rGBM), 12-14 days after inoculation of the mice with the tumor cells, the visible tumor(s) are surgically removed, based on GFP expression, under a stereoscope. The mice are then allowed to recover for a week and then are treated with cholesterol-lowering drugs (FIG. 16A). Of note, tumor formation or recurrence is monitored by bioluminescence (BLI) signals from the tumor cells on in-vivo imaging system (IVIS) spectrum and quantified with Living Image software. Mice are monitored for tumor growth, peritumoral brain edema formation, and mouse survival until the experimental endpoint (extreme lethargy or body weight reduction of greater than 20%), or are euthanized seven days after treatment with the cholesterol-lowering drugs to assess tumor burden, angiogenesis, BBB stability, and immunomodulatory activity in-situ. Tumor volume is evaluated in-vivo by determining tumor BLI, and by histopathology analysis postmortem. Peritumoral brain edema is evaluated in-vivo using IVISense™ Edema (Superhance™ 680) fluorescent probe. […]

[4] = target: cholesterol transporter ABCA1 (Homo sapiens, UniProt O95477); conditions: cited from earlier work
LDLR [5] = assay: LDLR levels (immunoblot) in GL261 cells treated with conditioned media of PCSK9-transduced astrocytes; format: cell-based, mouse; conditions: astrocyte-conditioned media (wild type PCSK9-encoding vs empty lentivirus), 24 hours; FIG. 21B
Protocol: FIGS. 21A-D illustrate that PCSK9 overexpression in the cancer microenvironment halts glioma progression. (FIG. 21A) Box plot analysis of TCGA gene expression for PCSK9 in normal (Norm; n=207), GBM patients (n=163), or low-grade glioma (LGG, n=518). n represents the number of patients per group. (FIG. 21B) Astrocytes were transduced with wild type PCSK9-encoding or empty lentivirus, and 24 hours later, the media was collected and transferred to glioma cells. Representative immunoblot analyses comparing LDLR and ACTIN levels in GL261 glioma cells treated with the astrocyte-conditioned media for 24 hours. (n=2 biologically independent experiments). […] PCSK9-encoding or empty lentiviruses were injected into the TME of GL261-bearing mice 9 and 15 days after tumor implantation. (FIG. 21C) Analysis of tumor size, based on tumor bioluminescence. (FIG. 21D) Kaplan-Meier curves assessing overall survival of these groups. Data are representative of two independent experiments with n=6 mice/group. Data are shown as mean±s.e.m. P values were determined by two-sided Student's t-tests (FIG. 21A), two-way ANOVA (FIG. 21C), or Log rank (Mantel-Cox) test (FIG. 21D). *P<0.05, **P<0.01, ***P<0.001.
Cells were lysed in RIPA buffer supplemented with protease inhibitors (Cell Signaling). […] Quantification was done using Image Studio Lite software version 5.2 (LI-COR Biosciences).

glioma [6] = conditions: experimental glioma mouse models; cited from earlier work
[7] = system: GL261 and CT-2A glioma cells; assay: Cell viability assay (Annexin V/DAPI FACS) of glioma cells; format: cell-based, mouse; conditions: 24-OHC for 72 hours; GL261 and CT-2A glioma cell lines; FIGS. 5J-K
Protocol: FIGS. 5A-N illustrate that astrocyte-derived cholesterol supports glioma survival. (FIGS. 5A-D) Real-time changes in the ECAR (FIGS. 5A-B) and oxygen consumption rate (OCR) (FIGS. 5C-D) of GL261 glioma cells, cultured in media supplemented with full serum (FCS, fetal calf serum) or lipoprotein-deprived serum (LPDS, Lipoprotein-deficient serum) for 18 hours and measured using Seahorse. Oligo, oligomycin; FCCP, carbonyl cyanide4-(trifluoromethoxy) phenylhydrazone; R/A, rotenone plus antimycin A; 2-DG, 2-deoxy-d-glucose. Glycolysis, glycolytic capacity and glycolytic reserve were extracted from the ECAR reading, and basal respiration, adenosine triphosphate (ATP) production, Maximal respiration, and spare respiratory capacity were determined based on OCR. Data are representative of two independent experiments (n=6 technical replicates per experiment). (FIG. 5E) Percentage of cell death of GL261 and CT-2A glioma cells, or primary astrocytes, cultured in FCS or LPDS for 5 days; as determined by Annexin-V assay (n=5 independent experiments). […] Representative flow cytometry plots of Annexin-V/DAPI staining from each group are shown in FIG. 5F and quantification analyses of cholesterol rescue are in FIG. 5G (n=5 biologically independent experiments). (FIGS. 5H-K) Representative images and quantification of LDLR expression (Immunoblot, FIGS. 5H-I) and cell death via FACS analysis of Annexin V/DAPI staining (FIGS. 5J-K) in response to endogenous LXR agonists (24-OHC) or Mock (DMSO) treatment in GL261 and CT-2A cells (n=3 biologically independent experiments). […] (FIGS. 5L-M) Representative flow cytometry plots of murine GL261 and CT-2A glioma cells co-cultured for 5 days with primary mouse astrocytes are shown in FIG. 5L and quantification analyses in FIG. 5M (n=4 biologically independent experiments). (FIG. 5N) quantification analyses of human U87EGFRvIII (U87) glioma cells co-cultured with human primary astrocytes for 5 days (n=3 biologically independent experiments). […]

LDLR [8] = assay: LDLR expression by immunoblot in glioma cells treated with LXR agonist; format: cell-based, mouse; conditions: GL261 and CT-2A cells; 24-OHC vs Mock (DMSO); FIGS. 5H-I
Protocol: FIGS. 5A-N illustrate that astrocyte-derived cholesterol supports glioma survival. (FIGS. 5A-D) Real-time changes in the ECAR (FIGS. 5A-B) and oxygen consumption rate (OCR) (FIGS. 5C-D) of GL261 glioma cells, cultured in media supplemented with full serum (FCS, fetal calf serum) or lipoprotein-deprived serum (LPDS, Lipoprotein-deficient serum) for 18 hours and measured using Seahorse. Oligo, oligomycin; FCCP, carbonyl cyanide4-(trifluoromethoxy) phenylhydrazone; R/A, rotenone plus antimycin A; 2-DG, 2-deoxy-d-glucose. Glycolysis, glycolytic capacity and glycolytic reserve were extracted from the ECAR reading, and basal respiration, adenosine triphosphate (ATP) production, Maximal respiration, and spare respiratory capacity were determined based on OCR. […] (FIG. 5E) Percentage of cell death of GL261 and CT-2A glioma cells, or primary astrocytes, cultured in FCS or LPDS for 5 days; as determined by Annexin-V assay (n=5 independent experiments). […] Representative flow cytometry plots of Annexin-V/DAPI staining from each group are shown in FIG. 5F and quantification analyses of cholesterol rescue are in FIG. 5G (n=5 biologically independent experiments). […] (FIG. 5N) quantification analyses of human U87EGFRvIII (U87) glioma cells co-cultured with human primary astrocytes for 5 days (n=3 biologically independent experiments). […]

Chain of cholesterol transporter ABCA1 (O95477 whole entry): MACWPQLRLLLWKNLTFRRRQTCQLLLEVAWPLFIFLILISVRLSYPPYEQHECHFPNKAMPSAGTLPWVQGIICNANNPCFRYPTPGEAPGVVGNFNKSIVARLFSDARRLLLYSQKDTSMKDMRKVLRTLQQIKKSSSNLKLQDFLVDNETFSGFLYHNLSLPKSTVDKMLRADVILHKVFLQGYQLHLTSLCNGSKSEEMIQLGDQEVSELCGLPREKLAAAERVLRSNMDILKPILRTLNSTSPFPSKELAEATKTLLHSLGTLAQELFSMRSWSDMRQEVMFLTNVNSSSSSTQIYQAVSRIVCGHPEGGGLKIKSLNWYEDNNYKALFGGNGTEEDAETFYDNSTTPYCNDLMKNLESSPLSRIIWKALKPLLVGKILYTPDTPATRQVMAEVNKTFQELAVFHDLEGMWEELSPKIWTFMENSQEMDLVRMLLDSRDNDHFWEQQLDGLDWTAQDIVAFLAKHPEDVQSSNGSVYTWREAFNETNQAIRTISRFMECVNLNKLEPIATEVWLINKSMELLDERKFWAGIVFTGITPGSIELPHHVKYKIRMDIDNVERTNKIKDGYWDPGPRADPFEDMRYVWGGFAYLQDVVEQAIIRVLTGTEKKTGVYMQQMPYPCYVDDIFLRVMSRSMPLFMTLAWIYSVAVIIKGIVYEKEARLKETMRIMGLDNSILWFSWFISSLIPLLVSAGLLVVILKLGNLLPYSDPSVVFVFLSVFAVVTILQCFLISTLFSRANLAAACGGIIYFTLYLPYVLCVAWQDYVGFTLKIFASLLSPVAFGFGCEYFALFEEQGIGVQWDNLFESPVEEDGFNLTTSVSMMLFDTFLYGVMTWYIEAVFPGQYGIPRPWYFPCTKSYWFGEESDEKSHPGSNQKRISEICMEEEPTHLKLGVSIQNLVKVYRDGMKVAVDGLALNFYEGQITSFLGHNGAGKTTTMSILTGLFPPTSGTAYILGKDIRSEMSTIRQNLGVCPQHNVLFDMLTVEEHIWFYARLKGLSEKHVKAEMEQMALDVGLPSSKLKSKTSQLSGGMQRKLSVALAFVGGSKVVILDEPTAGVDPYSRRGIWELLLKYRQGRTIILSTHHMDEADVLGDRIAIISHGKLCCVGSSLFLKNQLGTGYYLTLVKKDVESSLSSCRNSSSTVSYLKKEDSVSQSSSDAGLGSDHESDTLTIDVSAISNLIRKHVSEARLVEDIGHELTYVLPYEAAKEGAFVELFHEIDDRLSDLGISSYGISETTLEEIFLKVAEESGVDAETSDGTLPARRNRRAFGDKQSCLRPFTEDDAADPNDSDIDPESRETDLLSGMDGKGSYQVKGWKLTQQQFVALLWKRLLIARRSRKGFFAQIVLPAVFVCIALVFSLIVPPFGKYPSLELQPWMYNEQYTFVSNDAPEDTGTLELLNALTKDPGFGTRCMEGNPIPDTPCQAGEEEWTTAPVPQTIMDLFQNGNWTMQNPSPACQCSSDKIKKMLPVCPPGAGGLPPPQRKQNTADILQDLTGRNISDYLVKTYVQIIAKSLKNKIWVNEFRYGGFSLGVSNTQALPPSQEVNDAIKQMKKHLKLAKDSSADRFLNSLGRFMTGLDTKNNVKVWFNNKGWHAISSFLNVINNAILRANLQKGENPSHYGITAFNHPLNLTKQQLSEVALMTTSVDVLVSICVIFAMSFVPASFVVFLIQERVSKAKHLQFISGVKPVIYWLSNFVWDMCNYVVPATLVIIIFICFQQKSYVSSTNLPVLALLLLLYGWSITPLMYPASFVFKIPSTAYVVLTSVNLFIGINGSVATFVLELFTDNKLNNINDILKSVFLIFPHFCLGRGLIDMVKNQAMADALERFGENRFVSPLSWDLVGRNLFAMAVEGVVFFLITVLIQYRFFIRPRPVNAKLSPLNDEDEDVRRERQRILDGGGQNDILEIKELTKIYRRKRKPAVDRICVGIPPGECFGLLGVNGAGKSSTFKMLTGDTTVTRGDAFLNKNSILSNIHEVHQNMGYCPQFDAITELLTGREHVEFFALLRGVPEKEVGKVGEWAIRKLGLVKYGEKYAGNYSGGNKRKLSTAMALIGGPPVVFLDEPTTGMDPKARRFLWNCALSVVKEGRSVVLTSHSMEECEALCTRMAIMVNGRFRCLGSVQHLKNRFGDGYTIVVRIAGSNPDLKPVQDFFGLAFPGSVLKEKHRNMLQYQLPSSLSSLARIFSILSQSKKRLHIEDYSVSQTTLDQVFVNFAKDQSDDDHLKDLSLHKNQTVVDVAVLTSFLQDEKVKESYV

## CCc1n(CC(=O)O[C@@H]2C[C@H](C)CC[C@H]2C(C)C)c2ccccc2[n+]1C.[Cl-] [Gboxin]
Glioma [1]
  glioma proliferation and cell death: inhibit glioma proliferation and induce cell death
[2]
  growth of tumours: suppresses the growth of tumours

## COc1ccc(Cl)cc1C(=O)NCCc1ccc(S(=O)(=O)NC(=O)NC2CCCCC2)cc1 [Glyburide]
[3]
  attenuation of the astrocyte-dependent rescue of glioma cells from cholesterol deprivation (glioma cell death), relative efficiency: the most potent
GL261 glioma (GBM)
  survival of subjects having GBM in-vivo: prolonging survival
  tumor size of subjects having GBM in-vivo: decreasing tumor size
  weight loss of subjects having GBM in-vivo: preventing weight loss
[4]
  ABCA1 inhibitor potency: potent

## PCSK9: wild type PCSK9 secreted into astrocyte-conditioned medium by lentivirus-transduced astrocytes
LDLR [5]
  levels of LDLR in GL261 glioma cells: decreased levels of LDLR

## FC(F)(F)c1ccc(CNc2ccc(Cc3c[nH]c4ncc(Cl)cc34)cn2)cn1 [PLX3397]
Glioma [6]
  glioma expansion: reduces glioma expansion

## CC(C)[C@@H](O)CC[C@@H](C)[C@H]1CC[C@H]2[C@@H]3CC=C4C[C@@H](O)CC[C@]4(C)[C@H]3CC[C@]12C [24-OHC, 24(S)-hydroxycholesterol]
[7]
  glioma cell death: dramatic cell death
LDLR [8]
  LDLR expression (degradation): dose-dependent LDLR degradation
